Reference: patent publication US20090298938A1, “USE OF SEMI SYNTHETIC ANALOGUES OF BOSWELLIC ACIDS FOR ANTICANCER ACTIVITY” (COUNCIL OF SCIENTIFIC & INDUSTRIAL RESEARCH, priority 2008, published 2009)

Key:
Assay type in all cases: cell-based, human
HL-60 cells [1] = assay: Inhibition of cell proliferation, MTT assay; details: HL-60, 48 hours
Description: FIGS. 1A-1B. FIG. 1A depicts the main triterpenoic acid constituents of the gum exudates from Boswellia serrata, the source of boswellic acids, represented by boswellic acid, acetyl boswellic acid, 11-keto-boswellic acids, acetyl-11-keto-boswellic acid. […] Cell proliferation analysis was performed in HL-60 cells using the MTT method described in the Examples section. Cells were incubated with each formula 1 analog for 48 hours at indicated concentration and thereafter, the mitochondiral competence of MTT reduction as an index of cell viability was determined. The optical density (OD) of the untreated control was taken as 100% viability. […] This analog, as a prototype, was selected for detailed investigations. Where a=compound of formula 1, R3=COCH2CH2CH3, R1=H, R4=R5=H, b=compound of formula 1, R3=COCH2CH3, R1=H, X=H2, c=compound of formula 1, R3=COCH2CH2CH3, R1=H, R4+R5=O, d=compound of formula 1, R1=H, R3=COCH2CH3, R4=R5=H, e=compound of formula 1, R3=COCH2CH2CH3, R1=H, R4=R5=H, f=β-boswellic acid
Human leukemia cells HL-60 were grown in suspension in 96-well culture plate and were incubated with different concentrations of the test analogs for 48 hr. The cells were then incubated with MTT and the MTT-formazon formed is eluted with DMSO, and OD measured in ELISA Reader [Shashi et al., 2006]. The intensity of the color formed in the untreated control wells relates to 100% cell growth. […]

HL-60 cells [2] = assay: Apoptosis induction, annexin V-FITC/PI flow cytometry; details: HL-60, 15 μM, 6 hr
Description: FIG. 2. Comparative efficacy of apoptosis induction: Measurement by flow cytometry. The effects of boswellic acid on the relative efficiency of induction of apoptosis and necrosis in HL-60 cells were analyzed by flow cytometry. Cells were incubated with each analog for 6 hrs and stained with annexin V-FITC labeled. The dot plots are representative of one of the two separate experiments. Values in the lower right quadrant represent the apoptotic population in the UR as post-apoptotic and in the UL as necrotic. Where a=compound of formula 1, R3=COCH2CH2CH3, […], R4=[…], b=compound of formula 1, R3=COCH2CH3R1=H, R4=[…], c=compound of formula 1, R3=COCH2CH2CH3, […], R4+R5=O, d=compound of formula 1, […], R3=COCH2CH3, R4=[…], e=compound of formula 1, R3=COCH2CH2CH3, […], R4=[…], f=β-boswellic acid. Compounds of formula 1 where […], R3=COCH2CH3R3=[…]; R3=COCH2CH2CH3, […], R4=[…] and natural β-boswellic acid produced low level of apoptotic cell population (approx. 10%) compared to compound of formula 1 where R3=COCH2CH2CH3, […], R4=[…] (17%), […], R3=COCH2CH3, R4=[…] (30%) and where R3=COCH2CH2CH3, […], R4+R5=O (23%), although the combined apoptotic and post-apoptotic population was about 32% with the last three analogs. Confirmation that boswellic acid analogs are potent inducers of apoptosis may also be obtained from DNA fragmentation assay. During the early events of apoptosis, phospholipid phosphatidyl serine of plasma membrane is externalized, which has very high affinity for annexinV antibody. Effect of a single concentration (15 μM) of each boswellic acid analogs on the relative efficiency of induction of apoptosis and necrosis in HL-60 cells was analyzed by flow cytometry. Cells were incubated with each analog for 6 hr and stained with Annexin V-FITC/PI. Camptothecin at 4 μM was used as positive control. There after, cells were washed and stained with FITC conjugated annexinV antibody and propidium iodide. The cells (10,000) were analysed by flow cytometery (BD, LSR) using ProQuest software.

HL-60 cells [3] = assay: Reduced glutathione content, fluorimetric; details: HL-60, 6 hr
Description: FIG. 7. Modulation of reduced glutathione contents in HL-60 cells by boswellic acid analogs. GSH content was measured in HL-60 cells as described in the Examples section, using treated and untreated groups of about 3×10^6 cells per well and 3 mL of RPMI media. Cells were treated with buthionine sulfoxime (BSO), N-acetyl cysteine (NAC), a compound designated “c” (formula 1 compound wherein R3=COCH2CH2CH3, […] and R4+R5=O), and NAC+the compound “c”. Treatment concentrations were as indicated. […] The depleted GSH stores were restored by an anti-oxidant n-acetyl cysteine. Depletion of GSH content is an important indicator of predisposition conditions leading to cellular injury. Loss of mitochondrial functions as a result of GSH depletion may affect the energy status of the cells and therefore, is critical event in the induction of cell injury. GSH in general offers protection by scavenging reactive oxygen species and electrophiles formed within the cells. The GSH content of cells recovered back to normal or NAC control when cells were treated with sulfhydral groups antioxidant, N-acetyl cysteine (NAC). […] Reduced glutathione content was determined in 3×10^6 HL-60 cells/well/3 mL medium in a 6-well plate after incubation with SS-145 for 6 hr. Cells were washed and the reduced glutathione contents were extracted and determined using a standard fluorimetric method [[…] et al., 1976]. […]

In the case of `CCCC(=O)OC1CCC2(C)C(CCC3(C)C2C(=O)C=C2C4C(C)C(C)CCC4(C)CCC23C)C1(C)C(=O)O` (stereo not shown) [R3=COCH2CH2CH3, R1=H, R4+R5=O], the “effect on cell proliferation compared to other analogs” value (HL-60 cells [1]) is reported as “marginally stronger effect compared to other analogs”, the apoptotic cell population (HL-60 cells [2]) is reported as 23% and the “combined apoptotic and post-apoptotic population” value (HL-60 cells [2]) is reported as “about 32%”. For the same compound, the “reduced glutathione (GSH) content” value (HL-60 cells [3]) was “strongly depleted GSH content”.
